The Kinase Knowledgebase extract (Sharma et al. 2016)

What follows are molecules tested against MAPK14 (human) (UniProt Q16539) (assay: Assessment of MAPK14 Kinase Activity).
Sequence of MAPK14 (human) (Q16539 whole entry, looked up): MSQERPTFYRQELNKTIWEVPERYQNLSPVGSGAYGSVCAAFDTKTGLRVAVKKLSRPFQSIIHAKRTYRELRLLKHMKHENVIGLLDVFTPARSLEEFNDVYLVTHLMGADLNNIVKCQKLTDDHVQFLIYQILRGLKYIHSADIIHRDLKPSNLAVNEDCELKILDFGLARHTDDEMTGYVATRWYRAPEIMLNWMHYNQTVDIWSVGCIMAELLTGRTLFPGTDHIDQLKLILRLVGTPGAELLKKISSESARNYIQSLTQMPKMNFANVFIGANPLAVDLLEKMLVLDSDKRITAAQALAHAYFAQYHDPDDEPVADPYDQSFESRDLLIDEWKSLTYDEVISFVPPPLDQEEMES
An IC50 of 200 nM was found for `Cc1cccc(-c2nc(-c3ccccc3)sc2-c2ccncc2)c1` in this work.
An IC50 of 22 nM was found for `CSc1ccc(-c2nc(-c3cccc(C)c3)c(-c3ccncc3)s2)cc1` in this work.
An IC50 of 260 nM was found for `CC(=O)Nc1nc(-c2ccccc2Cl)c(-c2ccncc2)s1` in this work.
An IC50 of 140 nM was found for `CC(=O)Nc1nc(-c2cccc(F)c2)c(-c2ccncc2)s1` in this work.
An IC50 of 74 nM was found for `Cc1cccc(-c2nc(-c3cccc(C)c3)c(-c3ccncc3)s2)c1` in this work.
An IC50 of 41 nM was found for `Cc1ccc(-c2nc(-c3cccc(C)c3)c(-c3ccncc3)s2)cc1` in this work.
An IC50 of 1300 nM was found for `COc1ccccc1-c1nc(NC(C)=O)sc1-c1ccncc1` in this work.
An IC50 of 45 nM was found for `CC(=O)Nc1nc(-c2ccc(Cl)cc2)c(-c2ccncc2)s1` in this work.
An IC50 of 51 nM was found for `CS(=O)(=O)c1ccc(-c2nc(-c3ccc(F)cc3)c(-c3ccncc3)s2)cc1` in this work.
An IC50 of 73 nM was found for `COc1cccc(-c2nc(NC(C)=O)sc2-c2ccncc2)c1` in this work.
An IC50 of 31 nM was found for `Cc1cccc(-c2nc(C(C)(C)C)sc2-c2ccncc2)c1` in this work.
An IC50 of 210 nM was found for `Cc1cccc(-c2nc(-c3ccc(C(=O)O)cc3)sc2-c2ccncc2)c1` in this work.
An IC50 of 1700 nM was found for `CCc1ccc(-c2nc(-c3cccc(C)c3)c(-c3cc[n+]([O-])cc3)s2)cc1` in this work.
An IC50 of 74 nM was found for `COc1ccc(-c2nc(NC(C)=O)sc2-c2ccncc2)cc1` in this work.
An IC50 of 8.9 nM was found for `CC(=O)Nc1nc(-c2cccc(C)c2)c(-c2ccncc2)s1` in this work.
An IC50 of 7.3 nM was found for `Cc1cccc(-c2nc(N)sc2-c2ccncc2)c1` in this work.
An IC50 of 76 nM was found for `CC(=O)Nc1nc(-c2ccc(C)cc2)c(-c2ccncc2)s1` in this work.
An IC50 of 15 nM was found for `Cc1cccc(-c2nc(-c3ccc([S+](C)[O-])cc3)sc2-c2ccncc2)c1` (centres undefined) in this work.
An IC50 of 69 nM was found for `Cc1cccc(-c2nc(-c3ccccc3C)sc2-c2ccncc2)c1` in this work.
An IC50 of 340 nM was found for `CC(=O)Nc1nc(-c2ccccc2C)c(-c2ccncc2)s1` in this work.
An IC50 of 27 nM was found for `Cc1cccc(-c2nc(C)sc2-c2ccncc2)c1` in this work.
An IC50 of 48 nM was found for `CC(=O)N(C)c1nc(-c2cccc(C)c2)c(-c2ccncc2)s1` in this work.
An IC50 of 43 nM was found for `CC(=O)Nc1nc(-c2cccc(Cl)c2)c(-c2ccncc2)s1` in this work.
An IC50 of 5.3 nM was found for `Cc1cccc(-c2nc(-c3ccc(O)cc3)sc2-c2ccncc2)c1` in this work.
